From ChEMBL document CHEMBL3797034, “Design, synthesis and evaluation of novel tacrine-multialkoxybenzene hybrids as multi-targeted compounds against Alzheimer's disease” (Eur J Med Chem, 2016) come the findings set out here.

The source made the active and inactive calls. The rule behind the calls is not given here.

Assay [1] has as its target Cholinesterase (Equus caballus, UniProt P81908).
Description: Inhibition of equine serum BuChE using butylthiocholine chloride as substrate preincubated for 20 mins followed by substrate addition by Ellman's method
Assay [2] has as its target Acetylcholinesterase (Electrophorus electricus, UniProt O42275).
Description: Inhibition of electric eel AChE using acetylthiocholine chloride as substrate preincubated for 20 mins followed by substrate addition by Ellman's method
The target in assay [3] is Amyloid-beta precursor protein (Homo sapiens, UniProt P05067).
Description: Inhibition of self-mediated amyloid beta (1 to 42) (unknown origin) aggregation after 24 hrs by thioflavin T fluorescence assay
Assay [4] concerns the target Acetylcholinesterase (Electrophorus electricus) (UniProt O42275). Description: Mixed inhibition of electric eel AChE using acetylthiocholine chloride as substrate preincubated for 20 mins followed by substrate addition by Lineweaver-burk plot analysis.
Assay [5] shares this target. Description: Reversible inhibition of electric eel AChE using acetylthiocholine chloride as substrate preincubated for 20 mins followed by substrate addition by Lineweaver-burk plot analysis.

Chain of Acetylcholinesterase (O42275 whole entry): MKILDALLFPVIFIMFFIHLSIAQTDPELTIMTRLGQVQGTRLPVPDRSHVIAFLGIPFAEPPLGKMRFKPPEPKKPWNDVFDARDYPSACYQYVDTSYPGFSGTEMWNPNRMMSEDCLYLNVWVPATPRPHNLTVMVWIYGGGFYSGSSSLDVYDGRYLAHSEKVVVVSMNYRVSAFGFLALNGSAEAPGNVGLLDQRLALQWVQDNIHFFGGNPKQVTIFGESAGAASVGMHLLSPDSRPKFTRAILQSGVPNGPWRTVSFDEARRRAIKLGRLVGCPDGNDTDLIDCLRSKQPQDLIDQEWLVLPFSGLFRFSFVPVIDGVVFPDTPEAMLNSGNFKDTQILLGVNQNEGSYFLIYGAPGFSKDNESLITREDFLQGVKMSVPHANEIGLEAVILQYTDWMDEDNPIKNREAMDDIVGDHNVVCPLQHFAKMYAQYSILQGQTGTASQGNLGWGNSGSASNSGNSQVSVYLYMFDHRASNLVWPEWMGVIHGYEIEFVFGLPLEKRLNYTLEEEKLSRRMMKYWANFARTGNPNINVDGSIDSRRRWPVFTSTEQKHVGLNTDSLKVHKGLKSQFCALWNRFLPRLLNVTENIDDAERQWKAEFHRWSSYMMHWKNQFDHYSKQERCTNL
Chain of Cholinesterase (P81908 whole entry): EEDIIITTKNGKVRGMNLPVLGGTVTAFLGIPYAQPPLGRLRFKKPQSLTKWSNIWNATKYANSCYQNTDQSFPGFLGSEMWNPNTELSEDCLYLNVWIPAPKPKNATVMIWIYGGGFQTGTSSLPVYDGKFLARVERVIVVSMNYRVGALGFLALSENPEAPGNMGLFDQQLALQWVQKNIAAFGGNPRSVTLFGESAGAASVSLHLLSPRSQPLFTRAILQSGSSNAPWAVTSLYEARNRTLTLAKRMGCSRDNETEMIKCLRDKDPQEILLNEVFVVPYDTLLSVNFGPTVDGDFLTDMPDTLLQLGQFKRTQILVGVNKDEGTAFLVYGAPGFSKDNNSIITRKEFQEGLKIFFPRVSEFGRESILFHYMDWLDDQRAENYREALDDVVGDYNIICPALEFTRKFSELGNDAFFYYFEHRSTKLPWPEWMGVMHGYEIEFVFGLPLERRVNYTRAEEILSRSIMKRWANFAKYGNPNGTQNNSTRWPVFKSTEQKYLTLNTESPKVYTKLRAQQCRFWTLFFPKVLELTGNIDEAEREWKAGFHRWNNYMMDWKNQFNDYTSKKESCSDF
Chain of Amyloid-beta precursor protein (P05067 whole entry): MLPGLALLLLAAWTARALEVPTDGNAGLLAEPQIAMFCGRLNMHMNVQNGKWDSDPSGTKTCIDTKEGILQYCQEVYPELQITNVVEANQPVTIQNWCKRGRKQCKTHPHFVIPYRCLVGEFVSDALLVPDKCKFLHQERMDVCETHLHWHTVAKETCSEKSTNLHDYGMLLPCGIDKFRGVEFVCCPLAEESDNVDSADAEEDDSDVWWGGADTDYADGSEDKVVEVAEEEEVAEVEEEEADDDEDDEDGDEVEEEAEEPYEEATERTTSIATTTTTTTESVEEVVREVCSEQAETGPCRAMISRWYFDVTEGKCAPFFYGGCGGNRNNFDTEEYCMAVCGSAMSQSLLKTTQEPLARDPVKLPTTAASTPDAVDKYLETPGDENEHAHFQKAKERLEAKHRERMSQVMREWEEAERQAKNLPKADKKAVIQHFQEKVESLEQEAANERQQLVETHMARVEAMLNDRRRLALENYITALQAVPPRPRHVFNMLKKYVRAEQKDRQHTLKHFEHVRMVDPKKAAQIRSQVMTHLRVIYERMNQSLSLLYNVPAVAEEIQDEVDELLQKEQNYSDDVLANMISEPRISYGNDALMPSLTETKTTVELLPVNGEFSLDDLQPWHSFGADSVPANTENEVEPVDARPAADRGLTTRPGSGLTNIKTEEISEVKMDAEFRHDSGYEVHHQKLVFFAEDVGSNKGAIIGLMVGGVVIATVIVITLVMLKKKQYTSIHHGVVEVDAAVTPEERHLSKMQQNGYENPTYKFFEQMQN
Chain of Acetylcholinesterase (Electrophorus electricus) (O42275 24-633 limits assumed): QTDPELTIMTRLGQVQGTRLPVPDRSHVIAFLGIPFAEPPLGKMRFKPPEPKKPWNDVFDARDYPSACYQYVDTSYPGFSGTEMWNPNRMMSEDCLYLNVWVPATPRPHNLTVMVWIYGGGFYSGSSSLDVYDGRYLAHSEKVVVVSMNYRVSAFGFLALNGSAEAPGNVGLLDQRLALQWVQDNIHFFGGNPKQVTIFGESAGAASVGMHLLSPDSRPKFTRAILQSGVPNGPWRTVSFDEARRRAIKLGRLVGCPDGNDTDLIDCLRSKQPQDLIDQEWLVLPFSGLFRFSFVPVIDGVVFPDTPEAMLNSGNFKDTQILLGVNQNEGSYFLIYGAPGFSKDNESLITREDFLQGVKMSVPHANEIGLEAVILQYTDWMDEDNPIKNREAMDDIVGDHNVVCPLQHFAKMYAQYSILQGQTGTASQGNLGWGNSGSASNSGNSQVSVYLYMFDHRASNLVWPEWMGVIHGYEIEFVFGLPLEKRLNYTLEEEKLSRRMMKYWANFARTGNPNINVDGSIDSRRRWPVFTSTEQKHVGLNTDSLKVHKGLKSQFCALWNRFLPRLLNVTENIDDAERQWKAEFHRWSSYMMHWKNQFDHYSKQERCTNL

Regarding `COc1ccc(CC(=O)OCC(=O)Nc2c3c(nc4ccccc24)CCCC3)cc1`, the figures for the IC50 in assay [1], in assay [2] and in assay [3] were 319 nM, 25.3 nM and 71.3 nM, respectively.

For the compound `COc1cc(C(=O)OCC(=O)Nc2c3c(nc4ccccc24)CCCC3)ccc1O`, the results for the IC50 in assay [1], in assay [2] and in assay [3] were 319 nM, 70.1 nM and 37.4 nM, respectively.

Regarding `O=C(COC(=O)Cc1ccc(Cl)cc1)Nc1c2c(nc3ccccc13)CCCC2`, the IC50 was found to be 218 nM in assay [1], 183 nM in assay [2] and 77.5 nM in assay [3].

As for `COc1ccc(CC(=O)OCC(=O)Nc2c3c(nc4ccccc24)CCCC3)cc1OC`, the IC50 was 554 nM in assay [1], 65.1 nM in assay [2] and 22.5 nM in assay [3].

In the case of `O=C(COC(=O)Cc1c[nH]c2ccccc12)Nc1c2c(nc3ccccc13)CCCC2`, the IC50 in assay [1] was determined as 292 nM; in assay [2] it was 8.13 nM; in assay [3], 39 nM.

Turning to `COc1cc(C(=O)OCC(=O)Nc2c3c(nc4ccccc24)CCCC3)cc(OC)c1OC`, the values for the IC50 in assay [1], in assay [2] and in assay [3] were 329 nM, 8.46 nM and 30.7 nM, respectively.

As to `O=C(COC(=O)/C=C/c1ccc(Cl)cc1)Nc1c2c(nc3ccccc13)CCCC2`, the IC50 in assay [1] worked out at 542 nM; in assay [2], 213 nM; in assay [3] it was 51.8 nM.

As to `O=C(COC(=O)c1ccc(O)c(O)c1)Nc1c2c(nc3ccccc13)CCCC2`, the IC50 in assay [1] was found to be 344 nM; in assay [2], 133 nM; in assay [3], 17.4 nM.

With `COc1ccc(CC(=O)OCC(=O)Nc2c3c(nc4ccccc24)CCCC3)c(OC)c1OC`, the IC50 in assay [1] came out at 364 nM; in assay [2], 5.63 nM; in assay [3], 51.8 nM. For the same compound, the inhibition result in assay [4] and in assay [5] was “Active” throughout.

Consider `COc1ccc(/C=C/C(=O)OCC(=O)Nc2c3c(nc4ccccc24)CCCC3)cc1O`, for which the results for the concentration for half-maximal inhibition (IC50) in assay [1], in assay [2] and in assay [3] were 355 nM, 74.9 nM and 46.1 nM, respectively.

On to `COc1cc(/C=C/C(=O)OCC(=O)Nc2c3c(nc4ccccc24)CCCC3)cc(OC)c1OC`, for which the figures for the IC50 in assay [1], in assay [2] and in assay [3] were 299 nM, 16.9 nM and 45.9 nM, respectively.

On to `O=C(COC(=O)Cc1ccc(O)cc1)Nc1c2c(nc3ccccc13)CCCC2`, for which the IC50 in assay [1] stood at 239 nM; in assay [2], 74 nM; in assay [3] it was 45.3 nM.

Take `COc1ccc(C(=O)OCC(=O)Nc2c3c(nc4ccccc24)CCCC3)c(OC)c1OC`: the IC50 in assay [1] was 255 nM; in assay [2] it was 15.5 nM; in assay [3] it was 65.5 nM.

For `COc1cc(OC)cc(C(=O)OCC(=O)Nc2c3c(nc4ccccc24)CCCC3)c1`, the IC50 was 224 nM in assay [1], 15.7 nM in assay [2] and 55.9 nM in assay [3].

Turning to `COc1ccc(/C=C/C(=O)OCC(=O)Nc2c3c(nc4ccccc24)CCCC3)cc1OC`, the figures for the IC50 in assay [1], in assay [2] and in assay [3] were 159 nM, 16.2 nM and 49.1 nM, respectively.

The term IC50 denotes the concentration needed to halve the response being measured.
